From patent publication US9278982B2, “Targeting human thymidylate kinase induces DNA repair toxicity in malignant tumor cells” (NATIONAL YANG-MING UNIVERSITY, priority 2010, dated 2016)

Legend:
[1] = tested on: HCT-116 p53−/− cells; test: γH2AX foci staining for induction of DNA damage (genomic toxicity); assay type: cell-based, human; conditions: YMU1 2 μM 2 days; FdUrd 2 μM 1 day
From the text: FIG. 14. Effect of YMU1 on genomic toxicity and DNA repair. […] After overnight, cells were exposed to doxorubicin and recovered. […]
TMPK and TS are key enzymes in dTTP synthesis and TS has been a major chemotherapy target (Garg et al., 2010). Inhibition of TS by FdUrd causes genome toxicity (Longley et al., 2003). Given the shared role of TMPK and TS in dTTP synthesis, we next compared the effects of blocking TMPK and TS by either shRNA interference or inhibitor treatment on the induction of DNA damage.
For γH2AX, Rad51 and XRCC1 staining, cells were fixed with 4% paraformaldehyde for 30 min at room temperature and were incubated with TBS (50 mM Tris-HCl, pH 7.4, 150 mM NaCl) plus 0.3% Triton X-100 for 5 min. The coverslips were blocked with MAXblock™ (Active Motif) for 1 h at 37° C., followed by staining with primary antibodies: anti-γH2AX monoclonal antibody (1:1000), anti-Rad51 polyclonal antibody (1:500) or anti-XRCC1 monoclonal antibody (1:500) overnight at 4° C. After extensive washing, cells were stained with secondary antibodies and Hoechst 33342 for 1 h at room temperature. After mounting, cells were analyzed and photographed with a Carl Zeiss fluorescence microscope equipped with AxioCam digital camera and Axio Vision Rel. 4.8 imaging software.

[2] = tested on: H184B5F5/M10, MCF-10A, MCF-7 and HCT-116 p53−/− cells; test: Colony assay of cell viability, YMU1 versus FdUrd; conditions: various concentrations thrice a week, 14 days
Method: (B) H184B5F5/M10 cells were seeded onto 100 mm-dish at 5,000 cells/dish. MCF-10A, MCF-7 and HCT-116 p53^−/− cells were seeded onto 6 well plate at 600 cells/well. Following overnight culture, cells were treated with various concentration of YMU1 or FdUrd thrice a week. After 14 days colonies were fixed, stained by crystal violet.
We also compared the effect of YMU1 and FdUrd on cell viability of non-tumorigenic mammary cycling cells, H184B5F5/M10 and MCF-10A and tumor lines, MCF-7 and HCT-116 p53^−/− cells.
After 14 days, colonies were fixed and stained by crystal violet and counted.

O=c1[nH]c(=O)n([C@H]2C[C@H](O)[C@@H](CO)O2)cc1F [FdUrd, 5-fluoro-2′deoxyuridine]
induction of DNA damage (γH2AX staining) [1]: induced severe DNA damage
death of cells in colony assay [2]: caused death of these cells
